Columns and labels:
rat striatal slices = assay: Nicotine-evoked [^3H]dopamine release (overflow) from superfused rat striatal slices; assay type: cell-based; settings: for inhibition at 0.1 µM: % inhibition at 100 nM analog, 10 μM S(-)nicotine, rat striatal slices, read-out: Inhibition of Nicotine-evoked [^3H]DA release; for IC50: Rattus norvegicus, full concentration response assay, 4-5 independent experiments in duplicate, 10 μM nicotine, read-out: IC50, inhibition of nicotine-evoked [^3H]DA release (converted)
Procedure: Rat striatal slices (500 μm thickness, 6 mg wet weight) were incubated for 30 minutes in Krebs buffer (118 mM NaCl, 4.7 mM KCl, 1.2 mM MgCl2, 1.0 mM NaH2PO4, 1.3 mM CaCl2, 11.1 mM glucose, 25 mM NaHCO3, 0.11 mM L-ascorbic acid, and 0.004 mM disodium EDTA; pH 7.4, and saturated with 95% O2/5% CO2) in a metabolic shaker at 34° C. Slices were rinsed with 15 mL of fresh buffer and incubated for an additional 30 minutes in fresh buffer containing 0.1 μM [^3H]dopamine (DA; 6 slices/3 mL). Subsequently, slices were rinsed with 15 mL of fresh buffer and each slice transferred to a superfusion chamber. Slices were superfused (0.6 mL/min) for 60 minutes with Krebs buffer containing nomifensine (10 μM) and pargyline (10 μM) and maintained at 34° C., pH 7.4, with continual aeration (95% O2/5% CO2). Two 4-minute samples (2.4 mL each) were collected to determine basal outflow of [^3H]DA. Slices were superfused for 36 min following addition of the analogs to the superfusion buffer after the collection of the second sample and nine 4-minute samples were collected. For initial probe assays, the concentration of analog was 100 nM. For concentration-response studies, the concentration of analog varied from 1 nM to 10 μM, and the effect of each concentration was determined using striatal slices obtained from an individual animal (repeated measures design). Subsequently, S(−)nicotine (10 μM) was added to the buffer and nine additional 4-minute samples were collected. At the end of the experiment, each slice was solubilized and the [^3H] content of the tissue determined.
Radioactivity in the superfusate and tissue samples was determined by liquid scintillation spectroscopy. Fractional release for tritium collected in each sample was divided by the total tritium present in the tissue at the time of sample collection and was expressed as a percentage of total tritium. Basal [^3H]outflow was calculated from the average of the tritium collected in the two […] samples just before addition of the analog. The sum of the increase in collected tritium resulting from either exposure to the test compound or exposure to S(−)nicotine in the absence and presence of the test compound equaled total [^3H]overflow. [^3H]Overflow was calculated by subtracting the [^3H]outflow during an equivalent period of prestimulation from the values in samples collected during and after drug exposure. Inasmuch as the radiolabelled compounds were not separated and identified, the tritium collected in superfusate is referred to as either [^3H]outflow or [^3H]overflow, rather than as [^3H]DA. [^3H]Overflow primarily represents [^3H]DA in the presence of nomifensine and pargyline in the superfusion buffer. […]
Analogs were also evaluated for their ability to inhibit NIC evoked [^3H]DA release. Antagonist activity was evaluated by comparing the NIC-evoked [^3H]overflow in the absence and presence of the analogs (see Table 1). […] Data are expressed as M±SEM. Control represents absence of compound. N=4/analog, *p<0.05
(§1) ^aData are % inhibition at 100 nM concentration of analog for 3-4 independent experiments. Specific binding in the [^3H]NIC binding assay is calculated as the difference between the total binding of 3 nM [^3H]NIC and nonspecific binding in the presence of 10 μM cytisine. Specific binding for the [^3H]MLA binding assay is calculated as the difference between the total binding of 3 nM [^3H]MLA to the receptors alone and its nonspecific binding in the presence of 10 μM nicotine. Analog-induced inhibition of nicotine-evoked [^3H]DA release is calculated as a percent of that in the absence of analog.
^bIC50 from full concentration response assay; data from 4-5 independent experiments, each performed in duplicate.

[1] = biological target: T1, α4β2 neuronal nicotinic acetylcholine receptors (Rattus norvegicus, UniProt P09483+P12390); assay: Inhibition of [^3H]nicotine (NIC) binding to rat brain membranes; settings: % inhibition at 100 nM analog; 3 nM [^3H]NIC; nonspecific 10 μM cytisine; 3-4 independent experiments
T1 construct: The brain tissue was homogenized with a Tekmar Polytron; from tissue; host or cells: rat brain membranes (whole brain without cortex and cerebellum)
Procedure: (§2) Rat brain was dissected into the whole brain tissue without cortex and cerebellum and was frozen in liquid nitrogen and stored at −70° C. until use. The brain tissue was homogenized with a Tekmar Polytron (setting 40) in 20 volumes of ice-cold hypotonic buffer (2 mM HEPES, 14.4 mM NaCl, 0.15 mM KCl, 0.2 mM CaCl2 and […], pH=7.5). The homogenate was centrifuged at 25,000×g for 17 minutes at 4° C. The pellet was resuspended in 20 volumes of the same buffer, and incubated for 10 min at 37° C. The resuspension was cooled to 4° C. and then centrifuged at the above parameters. The pellet was resuspended by sonicaton and centrifuged using the same conditions. The final pellet was stored at −20° C. under 10 ml of the incubation buffer and was suspended just before incubation with radioligand.
(§3) The binding of [^3H]NIC and [^3H]MLA to probe α4β2 and α7-type neuronal nicotinic acetylcholine receptors, respectively, was determined using [^3H]NIC (67 Ci/mmol) and [^3H]MLA (60 Ci/mmol), purchased from Perkin Elmer Life Sciences, Boston, Mass., U.S.A. and American Radiolabel Chemicals, Inc., St. Louis, Mo., U.S.A. Binding was performed in duplicate, in a final volume of 250 μl of the incubation medium, containing 20 mM HEPES, 144 mM NaCl, 1.5 mM KCl, 2 mM CaCl2, and 1 mM MgSO4, pH=7.5. Reaction was initiated by the addition of 100 μL of membrane suspension to the samples containing a desired concentration of test compounds and 3 nM [^3H]NIC or 3 nM [^3H]MLA (final concentrations) and incubated for 60 min at room temperature. Total binding was measured in the absence of unlabelled ligand and nonspecific binding was determined in the presence of 10 μM cytisine, for [^3H]NIC binding, and 10 μM nicotine for [^3H]MLA. The binding reaction was terminated by dilution of samples with 3 mL of ice-cold incubation buffer followed by immediate filtration through Unifilter-96 GFB-filter plates presoaked in 0.5% polyethylenimine using a Filtermate Harvester (Perkin Elmer, Shelton, Conn., U.S.A.). Filters were rinsed five times with 350 μL of ice-cold buffer, and then filter plates were dried at 48° C. for 60 min, bottom sealed and each well filled with 40 μL of Packard Microscint-20 cocktail. After 60 min of gentle shaking, the filter plates were top sealed and radioactivity measured using a Packard TopCount NXT scintillation counter. CPMs were processed through a Packard Windows NT operating system. Protein was measured using the Bradford dye-binding procedure with bovine serum albumin as the standard.
(§4) The ability of a probe concentration of 100 nM of the tetrakis-quaternary ammonium salts to inhibit specific binding was evaluated.
as §1

[2] = biological target: T2, α7-type neuronal nicotinic acetylcholine receptors (Rattus norvegicus, UniProt Q05941); assay: Inhibition of [^3H]methyllycaconitine (MLA) binding to rat brain membranes; settings: % inhibition at 100 nM analog; 3 nM [^3H]MLA; nonspecific 10 μM nicotine; 3-4 independent experiments
T2 construct: The brain tissue was homogenized with a Tekmar Polytron; from tissue; host or cells: rat brain membranes (whole brain without cortex and cerebellum)
Procedure: as §2, §3, §4, §1

[3] = biological target: T2, α7-type neuronal nicotinic acetylcholine receptors; assay: as above

T1 sequence (P09483 31-630): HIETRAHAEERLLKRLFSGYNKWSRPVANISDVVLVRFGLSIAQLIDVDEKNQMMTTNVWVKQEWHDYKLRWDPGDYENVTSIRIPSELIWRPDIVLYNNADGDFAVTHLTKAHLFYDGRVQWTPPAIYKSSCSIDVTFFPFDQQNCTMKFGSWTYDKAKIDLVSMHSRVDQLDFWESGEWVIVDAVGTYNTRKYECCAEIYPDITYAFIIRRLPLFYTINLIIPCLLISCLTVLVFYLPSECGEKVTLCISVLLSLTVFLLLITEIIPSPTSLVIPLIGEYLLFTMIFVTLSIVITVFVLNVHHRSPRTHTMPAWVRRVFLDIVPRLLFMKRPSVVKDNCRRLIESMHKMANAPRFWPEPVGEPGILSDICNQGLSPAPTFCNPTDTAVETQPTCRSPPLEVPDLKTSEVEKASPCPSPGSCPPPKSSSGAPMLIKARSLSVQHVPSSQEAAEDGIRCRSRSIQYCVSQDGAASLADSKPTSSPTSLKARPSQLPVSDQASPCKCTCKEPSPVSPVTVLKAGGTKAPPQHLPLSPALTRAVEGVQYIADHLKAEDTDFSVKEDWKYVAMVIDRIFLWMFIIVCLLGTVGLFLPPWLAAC
T1 sequence (P12390 25-500): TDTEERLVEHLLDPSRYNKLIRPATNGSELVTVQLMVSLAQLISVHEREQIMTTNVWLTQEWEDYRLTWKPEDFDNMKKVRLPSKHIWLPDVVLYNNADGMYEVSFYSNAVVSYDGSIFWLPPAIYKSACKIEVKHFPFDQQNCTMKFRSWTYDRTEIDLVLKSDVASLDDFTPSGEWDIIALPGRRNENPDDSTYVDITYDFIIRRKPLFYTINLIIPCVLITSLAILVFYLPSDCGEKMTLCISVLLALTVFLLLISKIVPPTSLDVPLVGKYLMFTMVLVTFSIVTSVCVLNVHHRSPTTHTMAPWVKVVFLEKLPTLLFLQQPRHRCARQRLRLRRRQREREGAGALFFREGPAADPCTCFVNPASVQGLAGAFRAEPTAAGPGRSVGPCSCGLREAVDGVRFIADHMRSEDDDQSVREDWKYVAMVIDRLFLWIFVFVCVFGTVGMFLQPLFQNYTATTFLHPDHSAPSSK
T2 sequence (Q05941 23-502): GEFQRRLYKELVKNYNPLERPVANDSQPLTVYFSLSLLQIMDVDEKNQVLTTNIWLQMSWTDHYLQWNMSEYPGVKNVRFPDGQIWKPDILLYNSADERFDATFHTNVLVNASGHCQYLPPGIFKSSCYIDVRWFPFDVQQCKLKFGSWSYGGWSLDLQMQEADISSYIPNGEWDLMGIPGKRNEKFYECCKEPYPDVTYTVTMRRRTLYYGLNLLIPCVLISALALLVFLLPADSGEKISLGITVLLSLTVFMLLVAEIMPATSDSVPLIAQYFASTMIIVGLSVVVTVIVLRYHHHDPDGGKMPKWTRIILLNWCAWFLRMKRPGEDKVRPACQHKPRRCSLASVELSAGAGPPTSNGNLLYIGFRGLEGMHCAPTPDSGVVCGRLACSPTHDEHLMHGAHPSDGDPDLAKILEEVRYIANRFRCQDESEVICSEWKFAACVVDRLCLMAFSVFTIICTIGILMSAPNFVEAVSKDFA

Compound	inhibition at 0.1 µM (rat striatal slices) [%]	Inhibition of [^3H]Nicotine binding [1] [%]	Inhibition of [^3H]MLA binding [2] [%]	IC50 (rat striatal slices) [nM]	Ki [3] [nM]
Cc1cc[n+](CCCC#Cc2cc(C#CCCC[n+]3ccc(C)c(C)c3)c(C#CCCC[n+]3ccc(C)c(C)c3)cc2C#CCCC[n+]2ccc(C)c(C)c2)cc1C.[Br-].[Br-].[Br-].[Br-]	17 ± 6	9.8 ± 1.2	0.6 ± 0.6		
[Br-].[Br-].[Br-].[Br-].c1c(CCCCC[n+]2ccc3c(c2)CCCC3)c(CCCCC[n+]2ccc3c(c2)CCCC3)cc(CCCCC[n+]2ccc3c(c2)CCCC3)c1CCCCC[n+]1ccc2c(c1)CCCC2	27 ± 2	0.9 ± 0.9	27 ± 15	56	
α-bungarotoxin					28.6 ± 5.4
[Br-].[Br-].[Br-].[Br-].c1ccc2c[n+](CCCCCc3cc(CCCCC[n+]4ccc5ccccc5c4)c(CCCCC[n+]4ccc5ccccc5c4)cc3CCCCC[n+]3ccc4ccccc4c3)ccc2c1	63 ± 12	6.5 ± 6.5	24 ± 13	56	
